Assay results as given in patent publication US20230355647A1, “Marker for determining anti-cancer effects of mitochondrial oxidative phosphorylation pathway inhibitor” (NANJING SHIJIANG MEDICINE TECHNOLOGY CO., LTD, priority 2020, published 2023).

Tests used:
[1] = test system: SNU-449; assay: Cell viability (CellTiter-Glo), SNU-449; format: cell-based; settings: Homo sapiens; SNU-449 cell line, 3-4 days of culture
Procedure: (§1) Cell viability was detected using the Promega CellTiter-Glo kit, the kit reflected cell viability by directly measuring intracellular ATP content. The inhibitory effect (IC50 value) of Gboxin, a mitochondrial oxidative phosphorylation pathway inhibitor, on different tumor cell lines was tested in the Example. The name, source, and culture condition of each tumor cell line were as follows:
Cell line SNU-449 (ATCC, No. CRL-2234) was cultured in 10% fetal bovine serum-containing RPMI1640 medium (+P/S).
(§2) The above tumor cells were cultured in the relevant medium (+P/S), and incubated for 3 h, then the gradient diluted Gboxin was added, and IC50 (50% inhibiting concentration) was measured after 3-4 days of culture.

[2] = test system: COLO 320HSR; assay: Cell viability (CellTiter-Glo), COLO 320HSR; format: cell-based; settings: Homo sapiens; COLO 320HSR cell line, 3-4 days of culture
Procedure: as §1
Cell line COLO 320HSR (ATCC, No. CCL-220.1) was cultured in 10% fetal bovine serum-containing RPMI1640 medium (+P/S).
as §2

[3] = test system: Daoy; assay: Cell viability (CellTiter-Glo), Daoy; format: cell-based; settings: Homo sapiens; Daoy cell line, 3-4 days of culture
Procedure: as §1
Cell line Daoy (ATCC, No. HTB-186) was cultured in 10% fetal bovine serum-containing EMEM medium (+P/S).
as §2

[4] = test system: ACHN; assay: Cell viability (CellTiter-Glo), ACHN; format: cell-based; settings: Homo sapiens; ACHN cell line, 3-4 days of culture
Procedure: as §1
Cell line ACHN (ATCC, No. CRL-1611) was cultured in 10% fetal bovine serum-containing EMEM medium (+P/S).
as §2

[5] = test system: CFPAC-1; assay: Cell viability (CellTiter-Glo), CFPAC-1; format: cell-based; settings: Homo sapiens; CFPAC-1 cell line, 3-4 days of culture
Procedure: as §1, with “follows: Cell line CFPAC-1 (ATCC, No. CRL-1918) was cultured in 10% fetal bovine serum-containing IMDM medium (+P/S). […] Cell viability was detected using the Promega CellTiter-Glo kit, the kit reflected cell viability by directly measuring intracellular ATP content.” for “follows:”

[6] = test system: NCI-H196; assay: Cell viability (CellTiter-Glo), NCI-H196; format: cell-based; settings: NCI-H196 cell line, 3-4 days of culture
Procedure: as §1
Cell line NCI-H196 (ATCC, No. CRL-5823) was cultured in 10% fetal bovine serum-containing RPMI1640 medium (+P/S).
as §2

[7] = test system: U-87 MG; assay: Cell viability (CellTiter-Glo), U-87 MG; format: cell-based; settings: Homo sapiens; U-87 MG cell line, 3-4 days of culture
Procedure: as §1
Cell line U-87 MG (ATCC, No. HTB-14) was cultured in 10% fetal bovine serum-containing EMEM medium (+P/S).
as §2

[8] = test system: OCI-AML-3; assay: Cell viability (CellTiter-Glo), OCI-AML-3; format: cell-based; settings: Homo sapiens; OCI-AML-3 cell line, 3-4 days of culture
Procedure: as §1
Cell line OCI-AML-3 (DSMZ, No. ACC-582) was cultured in 20% fetal bovine serum-containing RPMI1640 medium (+P/S).
as §2

[9] = test system: SF126; assay: Cell viability (CellTiter-Glo), SF126; format: cell-based; settings: Homo sapiens, SF-126; SF126 cell line, 3-4 days of culture
Procedure: as §1, with “follows: Cell line SF126 (JCRB, No. IFO50286) was cultured in 10% fetal bovine serum-containing EMEM medium (+P/S). […] Cell viability was detected using the Promega CellTiter-Glo kit, the kit reflected cell viability by directly measuring intracellular ATP content.” for “follows:”

[10] = test system: DU 145; assay: Cell viability (CellTiter-Glo), DU 145; format: cell-based; settings: Homo sapiens; DU 145 cell line, 3-4 days of culture
Procedure: as §1
Cell line DU 145 (ATCC, No. HTB-81) was cultured in 10% fetal bovine serum-containing EMEM medium (+P/S).
as §2

[11] = test system: HH; assay: Cell viability (CellTiter-Glo), HH; format: cell-based; settings: Homo sapiens; HH cell line, 3-4 days of culture
Procedure: as §1
Cell line HH (ATCC, No. CRL-2105) was cultured in 10% fetal bovine serum-containing RPMI1640 medium (+P/S).
as §2

[12] = test system: U-251 MG; assay: Cell viability (CellTiter-Glo), U-251 MG; format: cell-based; settings: Homo sapiens; U-251 MG cell line, 3-4 days of culture
Procedure: as §1
Cell line U-251 MG (ECACC, No. 9063001) was cultured in EMEM medium containing 2 mM glutamine, 1% NEAA, 1 mM sodium pyruvate (NaP) and 10% fetal bovine serum (+P/S).
as §2

[13] = test system: mTOR pathway (p-S6); assay: Western Blot of p-S6 protein in tumor cells after inhibitor treatment; format: cell-based, human; settings: 1 μM or 3 μM Gboxin, 1 μM Oligomycin A, 12 h; for activity of mTOR pathway (p-S6): FIG. 3; for content of p-S6 protein (activity of mTOR pathway): FIG. 2
Procedure: The inhibition of mitochondrial oxidative phosphorylation pathway could cause the activation of ATF4 stress pathway and the decrease of mTOR pathway activity, the activity of the mTOR pathway was reflected by the expression level of phosphorylated ribosomal protein S6 (ie, p-S6).
(§3) The tumor cells NCI-H82, G-401 and WSU-DLCL2 were cultured in the relevant 10% FBS-containing medium (+p/s), and incubated overnight, then 1 μM Gboxin, 3 μM Gboxin or 1 μM Oligomycin A as shown in FIG. 2 was added. After 12 h of incubation, the content of ATF4 and p-S6 protein was detected using Western Blot, the experiment result was shown in FIG. 2.
as §3, with “The cell lines SF126, CFPAC-1” for “The tumor cells NCI-H82, G-401”, “and 786-O” for “and WSU-DLCL2”, “FIG. 3” for “FIG. 2”, “FIG. 3.” for “FIG. 2.”

[14] = test system: SU.86.86; assay: Cell viability (CellTiter-Glo), SU.86.86; format: cell-based; settings: Homo sapiens; SU.86.86 cell line, 3-4 days of culture
Procedure: as §1
Cell line SU.86.86 (ATCC, No. CRL-1837) was cultured in 10% fetal bovine serum-containing RPMI1640 medium (+P/S).
as §2

## CCc1n(CC(=O)O[C@@H]2C[C@H](C)CC[C@H]2C(C)C)c2ccccc2[n+]1C.[Cl-] [Gboxin]
[1]
  IC50: > 30 µM
[2]
  IC50: > 30 µM
[3]
  IC50: 9.72 µM
[4]
  IC50: 16.6 µM
[5]
  IC50: > 30 µM
[6]
  IC50: 19.3 µM
[7]
  IC50: 12.3 µM
[8]
  IC50: 1460 nM
[9]
  IC50: > 30 µM
[10]
  IC50: 9.91 µM
[11]
  IC50: 2670 nM
[12]
  IC50: 16.7 µM
[13]; 786-O cells
  activity of mTOR pathway (p-S6): no significant changes
[13]; CFPAC-1 cells
  activity of mTOR pathway (p-S6): no significant changes
[13]; G-401 cells
  content of p-S6 protein (activity of mTOR pathway): decreased
[13]; NCI-H82 cells
  content of p-S6 protein (activity of mTOR pathway): decreased
[13]; SF126 cells
  activity of mTOR pathway (p-S6): no significant changes
[13]; WSU-DLCL2 cells
  content of p-S6 protein (activity of mTOR pathway): decreased
[14]
  IC50: 13.7 µM
